In the OPERA property sets (Mansouri et al. 2018) one finds solubility data, which are given here for 56 compounds.

In brackets after ≈: the same amount, converted by molar mass.

Compound `O=C(O)[C@H](O)[C@@H](O)[C@H](O)[C@H](O)CO` gave a solubility (25 °C) of 1610 mM (≈ 316000 µg/mL). Still for that read-out and setting: in the case of `CN1C(=O)CCS(=O)(=O)C1c1ccc(Cl)cc1` (stereo unspecified) it was 9.13 mM (≈ 2500 µg/mL).

Take `NC(Cc1n[nH]c2ccccc12)C(=O)O` (stereo unspecified): the solubility (29 °C) was determined as 39 mM (≈ 8000 µg/mL). This lies in the millimolar range. Compound `CCC(C)C1(CC)C(=O)N=C([O-])NC1=O.[Na+]` (stereo unspecified) had a solubility of 1420 mM. `O=C(C(Cl)Cl)N(CCO)Cc1ccc(Oc2ccc([N+](=O)[O-])cc2)cc1` returned a solubility of 0.00751 mM (≈ 3 µg/mL).

Take `CC[C@@]12CCCN3CC[C@]4(c5cccc(OC)c5N(C(C)=O)[C@@H]4CC1)[C@H]32`: the solubility was found to be 47.1 mM (≈ 16700 µg/mL). This solubility is about 6300-fold higher than that of the compound before. For the compound `C[C@](N)(Cc1ccc(O)c(O)c1)C(=O)O`, the solubility (25 °C) stood at 47.3 mM (≈ 10000 µg/mL). This counts as millimolar.

In the case of `CC(=O)Nc1c(I)c(C(=O)N[C@H]2C(O)O[C@H](CO)[C@@H](O)[C@@H]2O)c(I)c(N(C)C(C)=O)c1I` (stereo partly specified), the solubility (25 °C) is 634 mM (≈ 500000 µg/mL). As to `Nc1ccc(S(=O)(=O)NC(=O)c2ccccc2)cc1`, under “30 °C”, the solubility worked out at 1.12 mM (≈ 310 µg/mL). Turning to `O=S(=O)([O-])CS(=O)(=O)[O-].[Ca+2]`, the solubility was determined as 1340 mM.

Take `Cn1c([N+](=O)[O-])cnc1COC(N)=O`: the solubility (25 °C) was 14.3 mM (≈ 2870 µg/mL).

In turn, `CCCn1cnc2c1c(=O)n(CCCCC(C)=O)c(=O)n2C` yielded a solubility (25 °C) of 104 mM (≈ 32000 µg/mL). `CC(O)(P(=O)(O)O)P(=O)(O)O`: the solubility (20 °C) amounted to 3350 mM (≈ 690000 µg/mL). With `NC(Cc1cc(Br)c(O)c(Br)c1)C(=O)O` (stereo in doubt), the solubility (25 °C) is 11.8 mM (≈ 4000 µg/mL). In the case of `CCC1(N2CCCCC2)C(=O)NC(=O)NC1=O`, the solubility is 6.98 mM (≈ 1670 µg/mL). Regarding `Cc1cc(O)c(C(C)C)cc1Cl`, the solubility (25 °C) came out at 5.42 mM (≈ 1000 µg/mL). Still for that read-out and setting: in the case of `CN1CCN(C(c2ccccc2)c2ccccc2)CC1` it was below 3.75 mM. Compound `CN(C)CCc1ccc(O)cc1` yielded a solubility of 42.4 mM (≈ 7000 µg/mL). `O=C([O-])c1ccccc1C(=O)O.[K+]` yielded a solubility of 408 mM. Against the preceding compound, the solubility is about 9.6-fold higher.

Compound `CCCOC(=O)c1cc(O)c(O)c(O)c1` displayed a solubility (25 °C) of 16.5 mM (≈ 3500 µg/mL). Compound `CCC(Br)(CC)C(=O)NC(N)=O` showed a solubility of 1.4 mM (≈ 333 µg/mL). In turn, `Nc1nc(N)c(O[C@@H]2O[C@H](CO)[C@@H](O)[C@H](O)[C@H]2O)c(=O)[nH]1` came in with a solubility of 32.9 mM (≈ 10000 µg/mL). For the setting “20 °C”, `Cc1ccc(C(C)C)c(O)c1C(=O)O` displayed a solubility of 0.515 mM (≈ 100 µg/mL).

The compound `O=C1NCCN1/N=C/c1ccc([N+](=O)[O-])o1` had a solubility of 0.439 mM (≈ 98.5 µg/mL). As to `CN(CCO)c1nc2c(c(=O)n(C)c(=O)n2C)n1C`, the solubility came out at 224 mM (≈ 60000 µg/mL). Take `O=C(c1ccc(F)cc1)C1CCN(CCn2c(=O)[nH]c3ccccc3c2=O)CC1`: the solubility (25 °C) stood at 0.0253 mM (≈ 10 µg/mL). That is a double-digit micromolar value.

With `OCc1cc(Br)ccc1O`, the solubility (25 °C) worked out at 621 mM (≈ 126000 µg/mL). This solubility lies about 25000-fold higher than the previous one. The compound `O=C(c1ccccc1O)N1CCOCC1` displayed a solubility of 19.8 mM (≈ 4100 µg/mL). Compound `CC(=O)N(O)CCCCCNC(=O)CCC(=O)N(O)CCCCCNC(=O)CCC(=O)N(O)CCCCCN` had a solubility (20 °C) of 21.4 mM (≈ 12000 µg/mL). This counts as millimolar.

As for `COC(=O)CC(C)=O`, the solubility is 4310 mM (≈ 500000 µg/mL). For `NC(=S)NC(N)=S`, the solubility (27 °C) was 20 mM (≈ 2700 µg/mL). For the compound `CCN(CC)C(=O)CSc1ccc(Cl)nn1`, the solubility stood at 19.2 mM (≈ 5000 µg/mL). For `CCCOc1ccc([N+](=O)[O-])cc1N`, the solubility (20 °C) was 0.693 mM (≈ 136 µg/mL). The compound `O=Cc1ccccc1O[C@@H]1O[C@H](CO)[C@@H](O)[C@H](O)[C@H]1O` had a solubility of 63.3 mM (≈ 18000 µg/mL).

For `CC(C)(C)C(O)C(Oc1ccc(Cl)cc1)n1cncn1` (stereo unspecified), for the setting “20 °C”, the solubility was determined as 0.406 mM (≈ 120 µg/mL). `NC(=O)OCC(Cl)(Cl)Cl`: the solubility amounted to 52 mM (≈ 10000 µg/mL).

`CC(=O)OC(C)(C)C`: the solubility (25 °C) came to 71.7 mM (≈ 8330 µg/mL). Regarding `OC(CI)CI`, the solubility amounted to 40.1 mM (≈ 12500 µg/mL). In other words, the millimolar range. For the compound `NC(=O)N(CCO)/N=C/c1ccc([N+](=O)[O-])o1`, the solubility stood at 2.06 mM (≈ 500 µg/mL). In the case of `O=C[C@H](O)C(O)[C@H](O)CO` (stereo in doubt), the solubility amounted to 3700 mM (≈ 555000 µg/mL). In turn, `C=CCC(C(=O)NC(N)=O)C(C)C` (stereo unspecified) had a solubility of 1.79 mM (≈ 330 µg/mL).

`C#CC1(OC(N)=O)CCCCC1` returned a solubility (25 °C) of 15 mM (≈ 2500 µg/mL). This lies in the millimolar range.

In turn, `C[C@H](O)[C@@H](O)c1cnc2[nH]c(N)nc(=O)c2n1` had a solubility (20 °C) of 2.95 mM (≈ 700 µg/mL). For the setting “25 °C”, `O=C1OC(CN2CCOCC2)CN1N=Cc1ccc([N+](=O)[O-])o1` (stereo unspecified) returned a solubility of 2.31 mM (≈ 750 µg/mL).

As for `O=C(C1CCCCC1)N1CC(=O)N2CCc3ccccc3C2C1` (stereo unspecified), the solubility worked out at 1.28 mM (≈ 400 µg/mL). With `OC[C@@H](O)[C@H](O)[C@@H](O)CO`, the solubility was 4220 mM (≈ 642000 µg/mL). Consider `CCOc1ccc2nc3cc(N)ccc3c(N)c2c1`, for which the solubility is 263 mM (≈ 66600 µg/mL). This solubility lies about 16-fold lower than the previous one.

Under “25 °C”, `NC(=S)Nc1cccc2ccccc12` showed a solubility of 2.97 mM (≈ 600 µg/mL). That is a millimolar value. Compound `O=[N+]([O-])c1ccc(C=NO)o1` gave a solubility (25 °C) of 6.41 mM (≈ 1000 µg/mL). The compound `CC(N)c1ccccc1` (stereo unspecified) gave a solubility (20 °C) of 347 mM (≈ 42000 µg/mL). This lies in the millimolar range. With `CC1(C)CC(=O)CC(=O)C1`, the solubility (25 °C) worked out at 29.7 mM (≈ 4160 µg/mL). That is a millimolar value. Regarding `CC(=O)OC[C@H]1O[C@@](COC(C)=O)(O[C@H]2O[C@H](COC(C)=O)[C@@H](OC(C)=O)[C@H](OC(C)=O)[C@H]2OC(C)=O)[C@@H](OC(C)=O)[C@@H]1OC(C)=O`, the solubility amounted to 1.34 mM (≈ 910 µg/mL). Turning to `CC(C[N+](C)(C)C)OC(N)=O.[Cl-]` (stereo unspecified), the solubility came to 3180 mM. In turn, `CN1C(=O)OC(C)(C)C1=O` had a solubility of 349 mM (≈ 50000 µg/mL).

Take `CN1C2CCCC1CC(=O)C2`: the solubility worked out at 2610 mM (≈ 400000 µg/mL). For the compound `C=C(C)C(=O)C(=CC(=O)O)OC`, under “25 °C”, the solubility amounted to 118 mM (≈ 20000 µg/mL).

In general, solubility refers to the dissolved amount per volume that the medium holds.
